As a reminder, the pIC50 is −log10 of the IC50, conventionally taken in molar units. Usually pEC50 stands for −log10 of the EC50, conventionally taken in molar units.

This note sets out measurements from ChEMBL document CHEMBL4334483, “STING modulators: Predictive significance in drug discovery” (Eur J Med Chem, 2019).

The nature of assay [1]: Inhibition of STING R232 mutant in mouse MEF cells assessed as increase in IFNbeta secretion.
Another assay is filed under the species Homo sapiens. The assay can be described thus: Selectivity index, ratio of EC50(app) for TBK1 in human PBMC […] in human PBMC.
In assay [2] the target is Stimulator of interferon genes protein (Homo sapiens, UniProt Q86WV6). Description: Induction of STING in human PBMC assessed as increase in IFNbeta secretion.
Sequence of Stimulator of interferon genes protein (Q86WV6 whole entry): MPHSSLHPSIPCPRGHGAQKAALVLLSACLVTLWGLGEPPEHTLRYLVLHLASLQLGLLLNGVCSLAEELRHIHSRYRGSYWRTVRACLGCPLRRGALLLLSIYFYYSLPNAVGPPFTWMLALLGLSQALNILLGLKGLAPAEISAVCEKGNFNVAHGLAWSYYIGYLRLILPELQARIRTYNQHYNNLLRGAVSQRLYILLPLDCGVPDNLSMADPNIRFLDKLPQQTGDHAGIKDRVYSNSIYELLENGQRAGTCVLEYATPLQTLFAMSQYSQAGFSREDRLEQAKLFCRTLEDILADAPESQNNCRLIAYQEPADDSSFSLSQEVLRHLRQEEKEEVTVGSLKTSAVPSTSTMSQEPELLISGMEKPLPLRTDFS
Assay [3] deals with T1, Serine/threonine-protein kinase TBK1 (Homo sapiens, UniProt Q9UHD2).
T1 sequence (Q9UHD2 whole entry): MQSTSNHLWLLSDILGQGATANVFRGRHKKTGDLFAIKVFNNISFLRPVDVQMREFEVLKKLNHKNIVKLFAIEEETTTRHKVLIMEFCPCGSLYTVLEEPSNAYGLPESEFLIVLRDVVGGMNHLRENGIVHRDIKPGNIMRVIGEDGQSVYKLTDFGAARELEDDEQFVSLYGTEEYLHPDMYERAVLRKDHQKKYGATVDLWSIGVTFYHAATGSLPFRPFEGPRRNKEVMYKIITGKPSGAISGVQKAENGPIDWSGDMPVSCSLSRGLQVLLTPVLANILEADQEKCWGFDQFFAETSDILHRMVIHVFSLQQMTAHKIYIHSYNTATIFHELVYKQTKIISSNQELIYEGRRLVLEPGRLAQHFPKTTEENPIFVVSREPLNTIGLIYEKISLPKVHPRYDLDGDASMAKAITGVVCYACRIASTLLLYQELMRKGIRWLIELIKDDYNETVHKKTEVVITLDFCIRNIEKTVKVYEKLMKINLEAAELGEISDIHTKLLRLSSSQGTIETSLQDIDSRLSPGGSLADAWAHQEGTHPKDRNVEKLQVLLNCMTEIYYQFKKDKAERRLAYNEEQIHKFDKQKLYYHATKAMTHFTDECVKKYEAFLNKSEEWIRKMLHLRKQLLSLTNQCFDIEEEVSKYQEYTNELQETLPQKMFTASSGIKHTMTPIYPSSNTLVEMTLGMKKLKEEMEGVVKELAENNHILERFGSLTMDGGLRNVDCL
The assay can be described thus: Induction of TBK1 in human PBMC assessed as increase in […].

pEC50, pIC50: −log10 of the molar value.

As to `CC[C@@H]1NC(=O)[C@@H]2[C@H](Cl)[C@H](Cl)CN2C(=O)[C@H](CC)NC(=O)C[C@H](c2ccccc2)NC(=O)[C@H](CO)NC1=O`, the pIC50 in assay [1] is 5.47.
Consider `CCn1nc(C)cc1C(=O)/N=c1\[nH]c2cc(C(N)=O)ccc2n1CCCCn1/c(=N/C(=O)c2cc(C)nn2CC)[nH]c2cc(C(N)=O)ccc21`, for which the Ratio EC50 in the assay filed under Homo sapiens came to 18.
Turning to `CCn1nc(C)cc1C(=O)Nc1nc2cc(C(N)=O)ccc2n1CCCCn1c(NC(=O)c2cc(C)nn2CC)nc2cc(C(N)=O)ccc21`, the values for the pEC50 in assay [2] and in assay [3] were 5.51 and 4.27, respectively.
